One data set has as its system C. albicans ATCC 10231. Nature of the data set: MIC evaluation test. Type of data set: cell-based, Candida albicans. The method, then: In additional exemplary procedure, minimum inhibitory concentration (MIC) evaluation test with Candida albicans was performed in test tubes. Growth in this case is visually evaluated. A pure culture of a single microorganism was grown in Tryptic soy broth, or sabouraud broth for yeast and mold.
(§1) The culture is standardized using standard microbiological techniques to have a concentration of very near 1 million cells per milliliter.
(§2) The antimicrobial agent is diluted a number of times, with Tryptic soy broth or sabouraud broth for fungi. After the antimicrobial agent had been diluted, a volume of the standardized inoculums was added to each dilution vessel, bringing the microbial concentration to approximately 1,000,000 cells per milliliter. The inoculated, serially diluted antimicrobial agent was incubated at an appropriate temperature for the test organism, 24 hours for bacteria 48 for yeast and 72 for mold.
(§3) MIC results are expressed in ppm.
(§4) The microorganism strains used for the test were E. coli ATCC 8739, P. aeruginosa ATCC 9027, S. aureus ATCC 6538, C. albicans ATCC 10231, A. niger ATCC 16404.

In a further data set the test system is P. aeruginosa ATCC 9027. Nature of the data set: MIC evaluation test. Format: cell-based, Pseudomonas aeruginosa. Here is the method: as §1, §2, §3, §4
For the next data set, the system named is S. aureus ATCC 6538. Description: MIC evaluation test. Type of data set: cell-based, Staphylococcus aureus. The method, then: as §1, §2, §3, §4
The subject of a further data set is E. coli ATCC 8739. Nature of the data set: MIC evaluation test. Format: cell-based, Escherichia coli. Here is the method: as §1, §2, §3, §4
In another data set the test system is A. niger ATCC 16404. Description: MIC evaluation test. Format: cell-based, Aspergillus brasiliensis (niger). Here is the method: In another exemplary procedure, MIC evaluation test with A. niger was performed in test tubes. Growth in this case is visually evaluated. A pure culture of a single microorganism was grown in Tryptic soy broth, or sabouraud broth for yeast and mold.
as §1, §2, §3, §4

The nature of data set [1]: Maltol shielding: absorbance at 410 nm, chelators, stainless steel 316. Type of data set: physicochemical. As to conditions: 0.5% solution of 90% Maltol and 10% Polyquaternium-80 in demineralized water, stainless steel 316 chip 12 hr. The source says:
Maltol has a metal chelating property. It can bond with metal ions and form a chelate product that can be strongly colored. This reaction is highly likely to happen when maltol is used in a manufacturing process involving steel based equipment. It means that even small quantities of these chelates could induce an undesirable color in a finished cosmetic product. A way to inhibit this phenomenon would be to add to maltol a small quantity of a stronger chelating agent, in order to intercept possible metal ions before Maltol could do so. Thus, an examination of various chelating agents in order to “protect” the Maltol from chelating metal ions was done. Procedure: […]

The conditions of data set [2]: formulation on stainless steel 304. The method, then: Procedure: To a 0.5% solution of 90% Maltol and 10% Polyquaternium-80 in demineralized water a chelating agent was added in concentrations of 25 ppm, 50 ppm, 100 ppm, 150 ppm, 200 ppm and 250 ppm, then a chip of stainless steel 316 (˜1×1 cm) was added to the solution for 12 hr.
The absorbance at 410 nm was measured with spectrophotometer Genesys 10uv (Thermo Scientific), the blank was a solution of 0.5% 90% Maltol and 10% Polyquaternium-80 in demineralized water.

[3] abbreviates: Pseudomonas aeruginosa, ATCC9027.
[4] abbreviates: Staphylococcus aureus, ATCC6538.

In brackets after ≈: the same amount, converted by molar mass. Read-outs that look alike come from different tables or passages of the source.

With `CCCCCCCCCCCC[N+](C)(C)C.[Cl-]` [Dodecyltrimethylammonium chloride], the MIC was under 60 µg/mL in the data set with C. albicans ATCC 10231 (Candida albicans, ATCC10231); 360 µg/mL against P. aeruginosa ATCC 9027 (setting [3]); under 60 µg/mL in the data set on S. aureus ATCC 6538 (setting [4]); under 60 µg/mL with E. coli ATCC 8739 (Escherichia coli, ATCC8739); 360 µg/mL in the data set on A. niger ATCC 16404 (Aspergillus niger, ATCC16404).

As to `O=C([O-])CN(CCN(CC(=O)O)CC(=O)O)CC(=O)[O-].[Na+].[Na+]` [Disodium EDTA, Ethylenediaminetetraacetic acid disodium salt], the “absorbance at 410 nm” value came to 0.022 in data set [1] (chelator Concentration (%) 0.5); 0.009 in data set [1] (chelator Concentration (%) 1); 0.004 in data set [1] (chelator Concentration (%) 2); 0.002 in data set [1] (chelator Concentration (%) 3); 0 in data set [1] (chelator Concentration (%) 4); 0 in data set [1] (chelator Concentration (%) 5). Further, the “absorbance at 410 nm” value in data set [2] (chelator Concentration (%) 0.5) is given as 0.061; in data set [2] (chelator Concentration (%) 1), 0.010; in data set [2] (chelator Concentration (%) 2), 0.026; in data set [2] (chelator Concentration (%) 3) it was 0.007; in data set [2] (chelator Concentration (%) 4) it was 0; in data set [2] (chelator Concentration (%) 5), 0.

In the case of `O=C(O)CCN(CC(=O)O)CC(=O)O` [Beta Alanine diAcetic acid], the “absorbance at 410 nm” value is listed as 0.133 in data set [1] (chelator Concentration (%) 0.5); 0.039 in data set [1] (chelator Concentration (%) 1); 0.045 in data set [1] (chelator Concentration (%) 2); 0.124 in data set [1] (chelator Concentration (%) 3); 0.067 in data set [1] (chelator Concentration (%) 4); 0.098 in data set [1] (chelator Concentration (%) 5).

Turning to `CCCCCCCCCCCC(=O)N[C@@H](CCCN=C(N)N)C(=O)OCC` [Ethyl Lauroyl Arginate], the MIC is listed as 10000 ppm with C. albicans ATCC 10231; 5000 ppm with P. aeruginosa ATCC 9027; 500 ppm in the data set on S. aureus ATCC 6538; 2500 ppm against E. coli ATCC 8739; 20000 ppm in the data set on A. niger ATCC 16404.

`COc1cc(C=O)ccc1O` [Vanillin]: the “absorbance at 410 nm” value in data set [1] (chelator Concentration (%) 0.5) was 0.037; in data set [1] (chelator Concentration (%) 1) it was 0.053; in data set [1] (chelator Concentration (%) 2) it was 0.062; in data set [1] (chelator Concentration (%) 3) it was 0.05; in data set [1] (chelator Concentration (%) 4), 0.159; in data set [1] (chelator Concentration (%) 5), 0.048.

In the case of `CCCCCCCCCC[N+](C)(C)CCCCCCCCCC.[Cl-]` [Didecyldimethylammonium chloride], the MIC with C. albicans ATCC 10231 (Candida albicans, ATCC10231) is under 30 µg/mL; against P. aeruginosa ATCC 9027 (setting [3]), 15 µg/mL; in the data set on S. aureus ATCC 6538 (setting [4]), under 3 µg/mL; against E. coli ATCC 8739 (Escherichia coli, ATCC8739), under 3 µg/mL; in the data set with A. niger ATCC 16404 (Aspergillus niger, ATCC16404) it was under 30 µg/mL.

For the molecule `O=C1O[C@H]([C@@H](O)CO)C(O)=C1O` [Ascorbic acid], the “absorbance at 410 nm” value in data set [1] (chelator Concentration (%) 0.5) is reported as 0.182; in data set [1] (chelator Concentration (%) 1), 0.162; in data set [1] (chelator Concentration (%) 2), 0.145; in data set [1] (chelator Concentration (%) 3), 0.155; in data set [1] (chelator Concentration (%) 4), 0.101; in data set [1] (chelator Concentration (%) 5), 0.06.

For the molecule `COc1cc(C(=O)[O-])ccc1O.[Na+]` [Sodium vanillate], the “absorbance at 410 nm” value in data set [1] (chelator Concentration (%) 0.5) is given as 0.073; in data set [1] (chelator Concentration (%) 1), 0.044; in data set [1] (chelator Concentration (%) 2), 0.386; in data set [1] (chelator Concentration (%) 3) it was 0.226; in data set [1] (chelator Concentration (%) 4), 0.078; in data set [1] (chelator Concentration (%) 5) it was 0.12.

Take `CCCCCCCCCCCC[N+](C)(C)Cc1ccccc1.[Cl-]` [Benzyldimethyldodecylammonium chloride]: the MIC with C. albicans ATCC 10231 (Candida albicans, ATCC10231) was under 60 µg/mL; against P. aeruginosa ATCC 9027 (setting [3]), 120 µg/mL; against S. aureus ATCC 6538 (setting [4]) it was under 60 µg/mL; in the data set on E. coli ATCC 8739 (Escherichia coli, ATCC8739), under 60 µg/mL; against A. niger ATCC 16404 (Aspergillus niger, ATCC16404), under 60 µg/mL.

Take `Cc1occc(=O)c1O` [Maltol]: the MIC is 2250 µg/mL (≈ 17.8 mM) in the data set with C. albicans ATCC 10231 (Candida albicans, ATCC10231, read-out: MIC); under 1350 µg/mL in the data set on P. aeruginosa ATCC 9027 (Pseudomonas aeruginosa, ATCC9027, read-out: MIC); 3800 µg/mL (≈ 30.1 mM) with S. aureus ATCC 6538 (Staphylococcus aureus, ATCC6538, read-out: MIC); 4000 µg/mL (≈ 31.7 mM) in the data set on E. coli ATCC 8739 (Escherichia coli, ATCC8739, read-out: MIC); 3150 µg/mL (≈ 25 mM) in the data set on A. niger ATCC 16404 (Aspergillus niger, ATCC16404, read-out: MIC).

With `CSCC[C@H](N)C(=O)O` [L-Methionine], the “absorbance at 410 nm” value in data set [1] (chelator Concentration (%) 0.5) came out at 0.113; in data set [1] (chelator Concentration (%) 1), 0.391; in data set [1] (chelator Concentration (%) 2) it was 0.393; in data set [1] (chelator Concentration (%) 3), 0.102; in data set [1] (chelator Concentration (%) 4), 0.311; in data set [1] (chelator Concentration (%) 5), 0.096.

On to Zinc gluconate, for which the “absorbance at 410 nm” value in data set [1] (chelator Concentration (%) 0.5) worked out at 0.231; in data set [1] (chelator Concentration (%) 1), 0.136; in data set [1] (chelator Concentration (%) 2) it was 0.207; in data set [1] (chelator Concentration (%) 3), 0.096; in data set [1] (chelator Concentration (%) 4), 0.147; in data set [1] (chelator Concentration (%) 5) it was 0.058.

Turning to `O=C([O-])[C@H](O)[C@@H](O)[C@H](O)[C@H](O)CO.[Na+]` [Sodium gluconate], the “absorbance at 410 nm” value in data set [1] (chelator Concentration (%) 0.5) is on record as 0.022; in data set [1] (chelator Concentration (%) 1), 0.04; in data set [1] (chelator Concentration (%) 2), 0.042; in data set [1] (chelator Concentration (%) 3), 0.045; in data set [1] (chelator Concentration (%) 4) it was 0.005; in data set [1] (chelator Concentration (%) 5), 0.006.

The record behind these values is patent US11771084B2, “Preservation of personal care compositions” (SHARON LABORATORIES LTD., priority 2018, dated 2023).
